Reference: patent US20260042763A1, “PE[…] POSITIVE […] THE TREATMENT OF IRRITABLE BOWEL SYNDROME AND OTHER AILMENTS OF THE PERIPHERAL NERVOUS SYSTEM” (The Johns Hopkins University, priority 2022, published 2026)
Read-outs that look alike come from different tables or passages of the source.

Target: T1, human isoforms of GABAA (α3ß2γ2) receptors (Homo sapiens, UniProt P18507+P34903)
T1 construct: expressed in transfected cells
Assay: Potentiation of GABA-evoked currents at GABAA (α3β2γ2) receptors, automated patch-clamp (QPatch), Example B1
Type: cell-based
Settings: for Emax: Emax of potentiation, read-out: Max %
Description: The ability of compounds exemplified above to potentiate the effect of GABA on GABAA receptors (α3β2γ2) was determined using one or more of the methods described below.
Ltk cells stably expressing the human isoforms of GABAA (α3ß2γ2) receptors were used together with submaximal GABA concentrations to investigate the modulatory effects of the test items. Cells were incubated at 37° C. in a humidified atmosphere with 5% CO2 (rel. humidity about 95%). The cells were continuously maintained in and passaged in sterile culture flasks containing a 1:1 mixture of Dulbecco's modified eagle medium and nutrient mixture D-MEM/F-12 (1×, liquid, with L-Glutamine), supplemented with 10% fetal bovine serum and 1.0% Penicillin/Streptomycin solution. The complete medium as indicated above was supplemented with neomycin. In general, cells were passaged at a confluence of about 80 to 90%. For electrophysiological measurements cells were harvested at a confluence of about 80 to 90% from sterile culture flasks containing culture complete medium. Cells were transferred as suspension in PBS to the QPatch 16X or QPatch HTX system to the centrifuge/washer directly. Expression of GABA receptor was induced by adding Dexamethasone to the cells for 24 to 48 h before experimentation.
Modulatory effects of the compounds of this disclosure were investigated using cells stably transfected with GABA-activated channels of the GABAA (α3ß2γ2) subtype together with submaximal GABA concentrations. Expression of GABA receptor were induced by adding Dexamethasone to the cells for 24 to 48 h before experimentation. In general, cells were passaged at a confluence of about 80 to 90%. For electrophysiological measurements cells were harvested at a confluence of about 80 to 90% from sterile culture flasks containing culture complete medium. Cells were transferred as suspension in PBS to the QPatch 16X or QPatch HTX system to the centrifuge/washer directly. Cells were incubated at 37° C. in a humidified atmosphere with 5% CO2 (rel. humidity about 95%). The cells were continuously maintained in and passaged in sterile culture flasks containing a 1:1 mixture of Dulbecco's modified eagle medium and nutrient mixture D-MEM/F-12 (1×, liquid, with L-Glutamine), supplemented with 10% foetal bovine serum and 1.0% Penicillin/Streptomycin solution and neomycin. The 1× bath solution was made at least every 5 days out of a sterile 10× bath solution, which had been prepared prior to the experimental start of the present study and stored at 1° C. to 9° C. The final bath solution included Sodium Chloride 137 mM, Potassium Chloride 4 mM, Calcium Chloride 1.8 mM, Magnesium Chloride 1 mM, HEPES 10 mM, D-Glucose 10 mM, pH (NaOH) 7.4. The 1× intracellular solution was thawed every day and includes Potassium Chloride 130 mM, Magnesium Chloride 1 mM, Mg-ATP 5 mM, HEPES 10 mM, EGTA 5 Mm, pH (KOH) 7.2. Automated patch-clamping: Cells were transferred as suspension in serum-free medium to the QPatch HTX system and kept in the cell storage tank during experiments. All solutions applied to cells including the intracellular solution were maintained at room temperature (19° C. to 30° C.). After formation of a Gigaohm seal between the patch electrodes and transfected individual Ltk cells were ruptured to assure electrical access to the cell interior (whole-cell patch-configuration). Inward currents were measured upon application of 2.0 μM GABA to patch-clamped cells for 4 s. During the entire experiment the cells were voltage-clamped at a holding potential of −80 mV. For the analysis of test items, GABAA receptors were stimulated by 2.0 μM GABA and test item combinations described below. Thirty-second prewash steps with test items was performed in between two agonist applications. […]

[1] = Ltk cells expressing GABAA α3β2γ2, 2.0 μM GABA, whole-cell, holding potential −80 mV

T1 sequence (P34903 29-492): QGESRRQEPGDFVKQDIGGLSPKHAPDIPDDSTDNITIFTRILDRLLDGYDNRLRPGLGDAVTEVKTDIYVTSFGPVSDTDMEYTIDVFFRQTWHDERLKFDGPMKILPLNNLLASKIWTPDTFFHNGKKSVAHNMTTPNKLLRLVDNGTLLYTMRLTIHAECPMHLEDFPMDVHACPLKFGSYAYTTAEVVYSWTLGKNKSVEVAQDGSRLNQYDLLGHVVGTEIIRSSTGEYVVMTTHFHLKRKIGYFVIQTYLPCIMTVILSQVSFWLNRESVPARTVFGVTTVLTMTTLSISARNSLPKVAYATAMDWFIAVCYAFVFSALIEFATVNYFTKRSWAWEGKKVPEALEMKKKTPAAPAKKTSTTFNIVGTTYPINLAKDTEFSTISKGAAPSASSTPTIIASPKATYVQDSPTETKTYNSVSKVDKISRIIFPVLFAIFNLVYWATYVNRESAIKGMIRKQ
T1 sequence (P47870 25-512 partner limits assumed): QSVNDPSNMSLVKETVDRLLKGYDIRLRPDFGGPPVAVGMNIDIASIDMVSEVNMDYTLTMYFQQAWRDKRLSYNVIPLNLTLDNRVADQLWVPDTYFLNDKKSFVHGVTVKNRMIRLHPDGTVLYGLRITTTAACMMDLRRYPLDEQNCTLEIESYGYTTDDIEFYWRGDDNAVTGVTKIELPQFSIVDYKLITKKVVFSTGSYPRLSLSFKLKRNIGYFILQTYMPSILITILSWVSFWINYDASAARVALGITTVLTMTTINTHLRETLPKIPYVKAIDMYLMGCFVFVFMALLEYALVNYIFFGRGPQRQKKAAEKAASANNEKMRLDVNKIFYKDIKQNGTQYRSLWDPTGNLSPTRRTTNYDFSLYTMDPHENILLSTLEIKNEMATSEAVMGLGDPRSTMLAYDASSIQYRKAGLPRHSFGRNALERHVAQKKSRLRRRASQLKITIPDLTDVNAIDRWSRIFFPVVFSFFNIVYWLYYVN
T1 sequence (P18507 40-475): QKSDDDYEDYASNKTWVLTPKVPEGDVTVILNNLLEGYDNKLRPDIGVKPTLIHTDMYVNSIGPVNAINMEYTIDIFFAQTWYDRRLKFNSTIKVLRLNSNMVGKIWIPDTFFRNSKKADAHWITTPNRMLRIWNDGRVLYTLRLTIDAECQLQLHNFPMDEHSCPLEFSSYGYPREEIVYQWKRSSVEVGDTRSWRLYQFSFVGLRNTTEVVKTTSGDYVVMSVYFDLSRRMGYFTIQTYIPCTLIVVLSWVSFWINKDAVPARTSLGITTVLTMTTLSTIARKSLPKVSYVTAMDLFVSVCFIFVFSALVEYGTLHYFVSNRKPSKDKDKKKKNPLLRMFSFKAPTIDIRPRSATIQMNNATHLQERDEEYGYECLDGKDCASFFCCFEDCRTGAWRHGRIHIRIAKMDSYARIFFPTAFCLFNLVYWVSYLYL

SMILES	EC50	Emax [1]	EC50 (Ltk cells expressing GABAA α3β2γ2, 2.0 μM GABA, whole-cell, holding potential −80 mV, read-out: EC50)
CC1N=C(c2ccccc2F)c2cc(Cl)ccc2-n2cc(C(=O)O)nc21 (racemic) [Compound 101, 12-Chloro-9-(2-fluorophenyl)-7-methyl-2,5,8-triazatricyclo[8.4.0.0^2,6] tetradeca-1 (10),3,5,8,11,13-hexaene-4-carboxylic acid]	< 50 nM	> 100%	
CC(C)CC1N=C(c2ccccc2F)c2cc(Cl)ccc2-n2cc(C(=O)O)nc21 (stereo not drawn) [Compound 102, 8-chloro-6-(2-fluorophenyl)-4-isobutyl-4H-imidazo[1,2-a][1,4]benzodiazepine-2-carboxylic acid]		50 to 100%	> 100 nM
O=C(O)c1cn2c(n1)CN=C(c1ccccc1F)c1cc(Cl)c(F)cc1-2 [Compound 201, 8-chloro-9-fluoro-6-(2-fluorophenyl)-4H-imidazo[1,2-a][1,4]benzodiazepine-2-carboxylic acid]	< 50 nM	> 100%	
C[N+](C)(C)Cc1cn2c(n1)CN=C(c1ccccc1F)c1cc(Cl)ccc1-2 [Compound 202, {[12-chloro-9-(2-fluorophenyl)-2,5,8-triazatricyclo[8.4.0.0^2,6]tetradeca-1 (10),3,5,8,11,13-hexaen-4-yl]methyl}trimethylazanium chloride]	< 50 nM	50 to 100%	
O=C(O)c1cn2c(n1)CN=C(c1ccccc1F)c1cc(Cl)cc(F)c1-2 [Compound 203, 12-Chloro-14-fluoro-9-(2-fluorophenyl)-2,5,8-triazatricyclo[8.4.0.0^2,6] tetradeca-1 (10),3,5,8,11,13-hexaene-4-carboxylic acid]	50 to 100 nM	50 to 100%	
Cc1ccccc1C1=NCc2nc(C(=O)O)cn2-c2ccc(Cl)cc21 [Compound 204, 8-chloro-6-(o-tolyl)-4H-imidazo[1,2-a][1,4]benzodiazepine-2-carboxylic acid]	< 50 nM	> 100%	
COc1cc2c(cc1Cl)C(c1ccccc1F)=NCc1nc(C(=O)O)cn1-2 [Compound 205, 8-chloro-6-(2-fluorophenyl)-9-methoxy-4H-imidazo[1,2-a][1,4]benzodiazepine-2-carboxylic acid]	< 50 nM	> 100%	
O=C(O)c1cn2c(n1)CN=C(c1ccccc1Br)c1cc(Cl)ccc1-2 [Compound 206, 6-(2-bromophenyl)-8-chloro-4H-imidazo[1,2-a][1,4]benzodiazepine-2-carboxylic acid]	< 50 nM	50 to 100%	
O=C(O)c1cn2c(n1)CN=C(c1ccccc1F)c1cc(Br)ccc1-2 [Compound 207, 8-bromo-6-(2-fluorophenyl)-4H-imidazo[1,2-a][1,4]benzodiazepine-2-carboxylic acid]	< 50 nM	> 100%	
CS(=N)(=O)CCNC(=O)c1cn2c(n1)CN=C(c1ccccc1F)c1cc(Cl)ccc1-2 (stereo not drawn) [Compound 208, 8-chloro-6-(2-fluorophenyl)-N-[2-(methylsulfonimidoyl)ethyl]-4H-imidazo[1,2-a][1,4]benzodiazepine-2-carboxamide]	< 50 nM	50 to 100%	
CP(C)(=O)CCCNC(=O)c1cn2c(n1)CN=C(c1ccccc1F)c1cc(Cl)ccc1-2 [Compound 209, 8-chloro-N-(3-dimethylphosphorylpropyl)-6-(2-fluorophenyl)-4H-imidazo[1,2-a][1,4]benzodiazepine-2-carboxamide]	< 50 nM	50 to 100%	
NCCNC(=O)c1cn2c(n1)CN=C(c1ccccc1F)c1cc(Cl)ccc1-2 [Compound 210, N-(2-aminoethyl)-8-chloro-6-(2-fluorophenyl)-4H-imidazo[1,2-a][1,4]benzodiazepine-2-carboxamide]	< 50 nM	> 100%	
COCCOCCOCCOCCNC(=O)c1cn2c(n1)CN=C(c1ccccc1F)c1cc(Cl)ccc1-2 [Compound 211, 8-chloro-6-(2-fluorophenyl)-N-[2-[2-[2-(2-methoxyethoxy)ethoxy]ethoxy]ethyl]-4H-imidazo[1,2-a][1,4]benzodiazepine-2-carboxamide]	50 to 100 nM	> 100%	
O=C(O)c1nc2n(c1C1CC1)-c1ccc(Cl)cc1C(c1ccccc1F)=NC2 [Compound 212, 8-chloro-1-cyclopropyl-6-(2-fluorophenyl)-4H-imidazo[1,2-a][1,4]benzodiazepine-2-carboxylic acid]	> 100 nM	> 100%	
Cc1c(C(=O)O)nc2n1-c1ccc(Cl)cc1C(c1ccccc1F)=NC2 [Compound 213, 8-chloro-6-(2-fluorophenyl)-1-methyl-4H-imidazo[1,2-a][1,4]benzodiazepine-2-carboxylic acid]	< 50 nM	> 100%	
O=C(O)c1cn2c(n1)CN=C(c1c(F)cccc1F)c1cc(Cl)ccc1-2 [Compound 214, 8-chloro-6-(2,6-difluorophenyl)-4H-imidazo[1,2-a][1,4]benzodiazepine-2-carboxylic acid]	< 50 nM	50 to 100%	
O=C(O)c1cn2c(n1)CN=C(c1cccc(F)c1F)c1cc(Cl)ccc1-2 [Compound 215, 8-chloro-6-(2,3-difluorophenyl)-4H-imidazo[1,2-a][1,4]benzodiazepine-2-carboxylic acid]	< 50 nM	> 100%	
O=C(O)c1cn2c(n1)CN=C(c1ccc(F)cc1F)c1cc(Cl)ccc1-2 [Compound 216, 8-chloro-6-(2,4-difluorophenyl)-4H-imidazo[1,2-a][1,4]benzodiazepine-2-carboxylic acid]		< 50%	
CCc1c(C(=O)O)nc2n1-c1ccc(Cl)cc1C(c1ccccc1F)=NC2 [Compound 217, 8-chloro-1-ethyl-6-(2-fluorophenyl)-4H-imidazo[1,2-a][1,4]benzodiazepine-2-carboxylic acid]	< 50 nM	> 100%	
O=C(O)c1cn2c(n1)CN=C(c1cccc(F)c1)c1cc(Cl)ccc1-2 [Compound 218, 8-chloro-6-(3-fluorophenyl)-4H-imidazo[1,2-a][1,4]benzodiazepine-2-carboxylic acid]	> 100 nM	> 100%	
O=C(O)c1cn2c(n1)CN=C(c1ccc(F)cc1)c1cc(Cl)ccc1-2 [Compound 219, 8-chloro-6-(4-fluorophenyl)-4H-imidazo[1,2-a][1,4]benzodiazepine-2-carboxylic acid]		50 to 100%	
O=C(O)c1cn2c(n1)CN=C(c1ccccc1Cl)c1cc(Cl)ccc1-2 [Compound 220, 8-chloro-6-(2-chlorophenyl)-4H-imidazo[1,2-a][1,4]benzodiazepine-2-carboxylic acid]	< 50 nM	> 100%	
O=C(O)c1cn2c(n1)CN=C(c1ccccc1F)c1cc(F)ccc1-2 [Compound 221, 8-fluoro-6-(2-fluorophenyl)-4H-imidazo[1,2-a][1,4]benzodiazepine-2-carboxylic acid]	50 to 100 nM	50 to 100%	
O=C(O)c1cn2c(n1)CN=C(c1ccccc1F)c1cc(C3CC3)ccc1-2 [Compound 222, 8-cyclopropyl-6-(2-fluorophenyl)-4H-imidazo[1,2-a][1,4]benzodiazepine-2-carboxylic acid]	50 to 100 nM	> 100%	
O=C(O)c1cn2c(n1)CN=C(c1ccccc1Cl)c1cc(F)ccc1-2 [Compound 223]	< 50 nM	< 50%	
O=C(O)c1cn2c(n1)CN=C(c1ccccc1F)c1cccc(Cl)c1-2 [Compound 224]	> 100 nM	< 50%	
O=C(O)c1cn2c(n1)CN=C(c1ccccc1F)c1ccc(Cl)cc1-2 [Compound 225, 9-chloro-6-(2-fluorophenyl)-4H-imidazo[1,2-a][1,4]benzodiazepine-2-carboxylic acid]		< 50%	
